Reference: publication PMC13128454, “Mutant p53 protein accumulation is selectively targetable by proximity-inducing drugs” (Nature Chemical Biology, 2025)
pIC50: −log10 of the molar value. Where “and” joins values, the source holds several entries; their conditions need not be identical. Identical values can stand only once. Values belong to the molecule of their own block, whether it stands above or below them.

Key:
[1] = system: cancer cell lines across DepMap; parameters: method as in DepMap; conditions: antiproliferative; GDSC1; ref DepMap; read-out: median IC50 across DepMap; cited from earlier work
[2] = system: Calu-1 cells stably expressing Halo–p53-Y220C (FL)–mCherry–2A–mTagBFP2-V5; experiment: CellTiter-Glo cell viability; format: cell-based; conditions: Cell_Type Y220C
Protocol: (§1) Cells were plated in 384-well plates (typically 1,500 cells per well) with varying concentrations of compounds, with a total volume of 50 μl per well. CTG reagent was added (25 μl) to the solutions, mixed and read out using an EnVision 2105 multimode plate reader.

[3] = system: Calu-1 cells stably expressing Halo–p53 WT (FL)–mCherry–2A–mTagBFP2-V5; experiment: CellTiter-Glo cell viability; format: cell-based; conditions: for mean_norm: Cell_Type WT; for replicates (raw CTG signal): p53_construct WT, CTG 4 days
Protocol: as §1

[4] = system: PLK1 targets (cyclin B1, phospho-PLK-binding motif) in Halo–p53-Y220C ΔTAD–mCherry 293T cells; experiment: western blot for PLK1 targets; format: cell-based; conditions: 8.5 h, double thymidine block
Protocol: (§2) Cells were split into a 10-cm dish at low confluency (20%) and grown overnight. Cells were synchronized with double thymidine block. Cells were treated with thymidine (2 mM) overnight and released into fresh medium for 8.5 h and then retreated with thymidine (2 mM) overnight. Cells were split into a six-well plate and released into medium containing compound for 8.5 h. Cells were pelleted and protein lysates were created using RIPA buffer containing Halt phosphatase and protease inhibitor (Thermo Fisher, 78440). Lysates were clarified by centrifugation (21,000g for 15 min) and the supernatant was denatured in 1× Lamelli buffer containing DTT by heating at 95 °C for 5 min. The resulting protein was loaded onto a Tris–acetate gel, transferred onto a PVDF membrane and treated with primary antibodies: cyclin B1 (D5C10, Cell Signaling Technologies, 12231T; 1:1,000) and phospho-PLK-binding motif (D73F6, Cell Signaling Technologies, 5243T; 1:1,000). The membrane was stained with IRDye 800CW goat anti-rabbit IgG secondary antibody (Licor Biosciences; 1:20,000) and imaged on an Odyssey DLx.

[5] = system: PLK1 targets (cyclin B1, phospho-PLK-binding motif) in parental 293T cells; experiment: western blot for PLK1 targets; format: cell-based; conditions: 8.5 h, double thymidine block
Protocol: as §2

[6] = system: Halo–p53-Y220C ΔTAD–mCherry 293T cells; experiment: 3-week culture with compound, mCherry^− fraction by FACS; format: cell-based; conditions: 250 nM, 3 weeks
[7] = CellTiter-Glo cell viability; format: cell-based; parameters: p5301_AUC_to_10uM / AUC_rezatapopt: scale not given here; viability, replicates (sheet 4G): unit not given here; conditions: human, MFE319 cells, No PMV6, read-out: viability, replicates (sheet 4G)
Protocol: as §1

[8] = system: MFE319 cells; experiment: CellTiter-Glo cell viability; format: cell-based; parameters: p5301_AUC_to_10uM / AUC_rezatapopt: scale not given here; viability, replicates (sheet 4G): unit not given here; conditions: for mean_norm (normalized viability): 4 day; for viability, replicates (sheet 4G): No PMV6
Protocol: as §1

[9] = system: PLK1 and p53-Y220C localization in cotransfected 293T cells; experiment: colocalization assay, live-cell imaging; format: cell-based; conditions: nonmitotic cells
Protocol: The 293T cells were seeded in six-well plates and cotransfected with Halo–p53-Y220C ΔTAD–mCherry and mEGFP–PLK1–SmBiT (1:1). After 1 day, the cells were passaged into 96-well plates in FluoroBrite DMEM for microscopy. The cells were imaged with the Opera Phenix Plus high-content screening system (PerkinElmer) before compound treatment and as a time series following compound treatment.

[10] = system: 293T cells stably expressing Halo–p53-Y220C ΔTAD–mCherry versus parental 293T cells; experiment: crystal violet staining; format: cell-based; conditions: 5 days
Protocol: The 293T cells were plated in six-well or 12-well plates at low density (~10% confluence) and treated with compound for the indicated duration. Cells were rinsed once with PBS and then stained with crystal violet (0.5% m/v) in 20% methanol–water for 10 min. Cells were washed with water five times and air-dried overnight.

[11] = system: BxPC-3 cells; experiment: CellTiter-Glo cell viability; format: cell-based; conditions: BXPC3; for mean_norm (normalized viability): 4 day
Protocol: as §1

[12] = p53-01 Concentration (µM) 0.0390625
[13] = p53-01 Concentration (µM) 0.078125
[14] = p53-01 Concentration (µM) 0.625

SMILES: CC[C@@H]1C(=O)N(C)c2cnc(Nc3ccc(C(=O)NC4CCN(C)CC4)cc3OC)nc2N1C1CCCC1 [BI2536]
- pIC50 [1]: 7.93
- mean_norm ([2]; Concentration 0.00976562): 1.033
- mean_norm ([2]; Concentration 0.0195312): 1.042
- mean_norm ([2]; Concentration 0.0390625): 1.012
- mean_norm ([2]; Concentration 0.078125): 1.001
- mean_norm ([2]; Concentration 0.15625): 1.013
- mean_norm ([2]; Concentration 0.3125): 0.9845
- mean_norm ([2]; Concentration 0.625): 0.8987
- mean_norm ([2]; Concentration 1.25): 0.7731
- mean_norm ([2]; Concentration 2.5): 0.741
- mean_norm ([2]; Concentration 5): 0.654
- mean_norm ([3]; Concentration 0.00976562): 0.9965
- mean_norm ([3]; Concentration 0.0195312): 0.9819
- mean_norm ([3]; Concentration 0.0390625): 0.9464
- mean_norm ([3]; Concentration 0.078125): 0.9231
- mean_norm ([3]; Concentration 0.15625): 0.8923
- mean_norm ([3]; Concentration 0.3125): 0.9222
- mean_norm ([3]; Concentration 0.625): 0.8706
- mean_norm ([3]; Concentration 1.25): 0.9152
- mean_norm ([3]; Concentration 2.5): 0.732
- mean_norm ([3]; Concentration 5): 0.654
- replicates (raw CTG signal) ([3]; Compound_conc 0.0488281): 244635 and 211925 and 234768 and 234225
- replicates (raw CTG signal) ([3]; Compound_conc 0.0976562): 273323 and 237458 and 247150 and 303994
- replicates (raw CTG signal) ([3]; Compound_conc 0.195312): 238397 and 225982 and 259666 and 218737
- replicates (raw CTG signal) ([3]; Compound_conc 0.390625): 236109 and 227126 and 240832 and 277749
- replicates (raw CTG signal) ([3]; Compound_conc 0.78125): 245303 and 237908 and 252002 and 245374
- replicates (raw CTG signal) ([3]; Compound_conc 1.5625): 272283 and 224772 and 244085 and 261410
- replicates (raw CTG signal) ([3]; Compound_conc 3.125): 243376 and 233836 and 240215 and 246677
- replicates (raw CTG signal) ([3]; Compound_conc 6.25): 186650 and 172938 and 193716 and 217878
- replicates (raw CTG signal) ([3]; Compound_conc 12.5): 153573 and 146180 and 148955 and 165621
- replicates (raw CTG signal) ([3]; Compound_conc 25): 156770 and 147371 and 141939 and 149390
- replicates (raw CTG signal) ([3]; Compound_conc 50): 121176 and 111722 and 112653 and 125709
- replicates (raw CTG signal) ([3]; Compound_conc 100): 91299 and 91521 and 110253 and 107241

- pIC50 ([11]; Homo sapiens, BXPC-3, 96 h, 4 day treatment): 5.08
SMILES: CC[C@@H]1C(=O)N(C)c2cnc(Nc3ccc(C(=O)NCCOCCOCCOCCOCCC(=O)N4CCC(Nc5cccc6c5cc(C#CCNc5ccc(S(C)(=O)=O)cc5OC)n6CC(F)(F)F)CC4)cc3OC)nc2N1C1CCCC1 [p53-01, PMV6-PEG4-BI2536]
- PLK1 substrates by western blot [4]: phenocopied BI2536
- PLK1 substrates by western blot [5]: not in parental cells
- expansion of mCherry^− fraction [6]: 6.9 fold
- viability at 0.0390625 µM [7, 12]: 94%
- viability at 0.078125 µM [7, 13]: 99.7%
- viability at 0.625 µM [7, 14]: 85.4%
- viability at 1.25 µM ([7]; p53-01 Concentration (µM) 1.25): 61.2%
- viability at 2.5 µM ([7]; p53-01 Concentration (µM) 2.5): 41.5%
- viability at 5 µM ([7]; p53-01 Concentration (µM) 5): 30%
- viability at 10 µM ([7]; p53-01 Concentration (µM) 10): 22.2%
- pIC50 ([8]; 96 h, MFE319, 4 day treatment): 5.90
- p5301_AUC_to_10uM ([8]; MFE319): 0.3547
- mean_norm (normalized viability) ([8]; MFE319, Concentration 39.0625): 0.968
- mean_norm (normalized viability) ([8]; MFE319, Concentration 78.125): 0.9234
- mean_norm (normalized viability) ([8]; MFE319, Concentration 156.25): 0.9253
- mean_norm (normalized viability) ([8]; MFE319, Concentration 312.5): 0.9948
- mean_norm (normalized viability) ([8]; MFE319, Concentration 625): 0.9099
- mean_norm (normalized viability) ([8]; MFE319, Concentration 1250): 0.6095
- mean_norm (normalized viability) ([8]; MFE319, Concentration 2500): 0.3193
- mean_norm (normalized viability) ([8]; MFE319, Concentration 5000): 0.2865
- mean_norm (normalized viability) ([8]; MFE319, Concentration 10000): 0.2268
- relative viability, replicates (sheet 4E) ([8]; log Concentration (nM) 0.68867): 1.049 and 0.9314 and 0.9072 and 0.917
- relative viability, replicates (sheet 4E) ([8]; log Concentration (nM) 0.9897): 0.9806 and 0.996 and 0.993 and 0.8521
- relative viability, replicates (sheet 4E) ([8]; log Concentration (nM) 1.29073): 0.9742 and 1.022 and 0.9775 and 0.9343
- relative viability, replicates (sheet 4E) ([8]; log Concentration (nM) 1.59176): 1.009 and 1.026 and 0.9509 and 0.8871
- relative viability, replicates (sheet 4E) ([8]; log Concentration (nM) 1.89279): 0.9459 and 0.9044 and 0.9452 and 0.8983
- relative viability, replicates (sheet 4E) ([8]; log Concentration (nM) 2.19382): 0.8852 and 0.9848 and 0.9106 and 0.9206
- relative viability, replicates (sheet 4E) ([8]; log Concentration (nM) 2.49485): 1.036 and 1.016 and 1.021 and 0.9075
- relative viability, replicates (sheet 4E) ([8]; log Concentration (nM) 2.79588): 0.9347 and 0.9684 and 0.8932 and 0.8433
- relative viability, replicates (sheet 4E) ([8]; log Concentration (nM) 3.09691): 0.6355 and 0.6443 and 0.6092 and 0.549
- relative viability, replicates (sheet 4E) ([8]; log Concentration (nM) 3.39794): 0.3339 and 0.3826 and 0.2998 and 0.2608
- relative viability, replicates (sheet 4E) ([8]; log Concentration (nM) 3.69897): 0.3202 and 0.3151 and 0.2607 and 0.2498
- viability, replicates (sheet 4G) [8, 12]: 87.9896 and 96.6442 and 88.8312
- viability, replicates (sheet 4G) [8, 13]: 105.101 and 108.114 and 111.169
- viability, replicates (sheet 4G) ([8]; p53-01 Concentration (µM) 0.15625): 94.6597 and 96.7065 and 100.094 and 89.7143
- viability, replicates (sheet 4G) ([8]; p53-01 Concentration (µM) 0.3125): 90.6182 and 88.5922 and 96.6649 and 91.0338
- viability, replicates (sheet 4G) [8, 14]: 77.5481 and 91.8338 and 80.5818
- viability, replicates (sheet 4G) ([8]; p53-01 Concentration (µM) 1.25): 68.0623 and 80.2078 and 68.1143
- viability, replicates (sheet 4G) ([8]; p53-01 Concentration (µM) 2.5): 46.5039 and 41.4649 and 46.0156
- viability, replicates (sheet 4G) ([8]; p53-01 Concentration (µM) 5): 29.174 and 32.0623 and 26.6805
- viability, replicates (sheet 4G) ([8]; p53-01 Concentration (µM) 10): 23.1584 and 24.4468 and 23.2416
- rescue of viability decline by PMV6 ([8]; p53-01 with PMV6 2.5 μM, CTG 4 days): partially compete the decline in cell viability
- protein localization [9]: PLK1 nuclear enrichment and colocalization with p53-Y220C
- crystal violet staining [10]: differential antiproliferative activity
- p5301_AUC_to_10uM [11]: 0.6983
- mean_norm (normalized viability) ([11]; Concentration 625): 0.9363
- mean_norm (normalized viability) ([11]; Concentration 1250): 0.9354
- mean_norm (normalized viability) ([11]; Concentration 2500): 0.8133
- mean_norm (normalized viability) ([11]; Concentration 5000): 0.7027
